Laboratory results reported in patent US9675068B2, “Solid form sodium lauryl sulfate (SLS) crawling pest elimination composition” (ECOLAB USA INC., priority 2008, dated 2017).

Assay: Ability of SLS forms to go into solution in water
Format: physicochemical
Conditions: at 12% and 18%
Text: In one embodiment, the pesticide composition of the present invention includes a combination of sodium lauryl sulfate (SLS) and water. In particular, the pesticide composition includes a combination of a solid form of sodium lauryl sulfate and water. Suitable component concentrations for a concentrate of the pesticide composition include between about 90% and about 100% sodium lauryl sulfate by weight and balance water, particularly between about 93% and about 100% sodium lauryl sulfate by weight and balance water and more particularly between about 95% and about 100% sodium lauryl sulfate by weight and balance water. Suitable component concentrations for a use solution of the pesticide composition include between about 1% and about 10% sodium lauryl sulfate by weight and balance water and particularly between about 1% and about 6% sodium lauryl sulfate by weight and balance water. At concentrations higher than about 12% by weight sodium lauryl sulfate, solid form sodium lauryl sulfate may not effectively form a solution. In other embodiments, similar intermediate concentrate and use concentrations may also be present in the cleaning compositions of the invention.
The compositions of Examples 1, 2 and 3 are compositions of the present invention using needle form sodium lauryl sulfate (SLS) as the active ingredient in a pesticide composition. […]

In the case of `CCCCCCCCCCCCOS(=O)(=O)[O-].[Na+]` [needle form SLS, sodium lauryl sulfate], the “going into solution in water” value is reported as “would not go into solution”.
